Experimental data taken from patent US20100298141A1, “SUBSTITUTED PYRIDINE N-OXIDE HERBICIDES” (E. I. DU PONT DE NEMOURS AND COMPANY, priority 2007, published 2010).

Columns and labels:
millet foxtail = experiment: Test G preemergence test; format: in vivo, Setaria italica; conditions: scale 0 to 100
giant foxtail = experiment: Test G preemergence test; format: in vivo, Setaria faberii; conditions: scale 0 to 100
barnyardgrass = experiment: Test G preemergence test; format: in vivo, Echinochloa crus-galli; conditions: scale 0 to 100
windgrass = experiment: Test D preemergence test; format: in vivo, Apera spica-venti; conditions: scale 0 to 100
Description: (§1) Seeds of plant species selected from annual bluegrass (Poa annua), blackgrass (Alopecurus myosuroides), downy bromegrass (Bromus tectorum), field violet (Viola arvensis), green foxtail (Setaria viridis), Italian ryegrass (Lolium multiflorum), littleseed canarygrass (Phalaris minor), spring wheat (Triticum aestivum), wild oat (Avena fatua), […]), winter barley (Hordeum vulgare), and winter wheat (Triticum aestivum) were planted and treated preemergence with test chemicals formulated in a non-phytotoxic solvent mixture which included a surfactant. […] A dash (-) response means no test result.

winter barley = experiment: Test D preemergence test; format: in vivo, Hordeum vulgare
Description: as §1

fall panicum = experiment: Test G preemergence test; format: in vivo, Panicum dichotomiflorum; conditions: scale 0 to 100
Ricefield Bulrush = experiment: Test C flooded paddy test; format: in vivo; conditions: Flood
Description: (§2) At time of treatment, test pots were flooded to 3 cm above the soil surface, treated by application of test compounds directly to the paddy water, and then maintained at that water depth for the duration of the test. Treated plants and controls were maintained in a greenhouse for 13 to 15 days, after which time all species were compared to controls and visually evaluated. […] A dash (-) response means no test result.

Redstem = experiment: Test C flooded paddy test; format: in vivo; conditions: Flood
Description: as §2

sugarcane = experiment: Test F pre-/postemergence test; format: in vivo, Saccharum officinarum; conditions: for Plant response rating, Sugarcane: preemergence, scale 0 to 100
Description: Seeds of plant species selected from bermudagrass (Cynodon dactylon), Surinam grass (Brachiaria decumbens), large crabgrass (Digitaria sanguinalis), green foxtail (Setaria viridis), goosegrass (Eleusine indica), johnsongrass (Sorghum halepense), kochia (Kochia scoparia), pitted morningglory (Ipomoea lacunosa), purple nutsedge (Cyperus rotundus), common ragweed (Ambrosia elation), mustard (Brassica nigra), guineagrass (Panicum maximum), […] (Paspalum dilatatum), barnyardgrass (Echinochloa crus-galli), southern sandbur (Cenchrus echinatus), common sowthistle (Sonchus oleraceous), prickly […] spinosa), Italian ryegrass (Lolium multiflorum), common purslane (Portulaca oleracea), broadleaf signalgrass (Brachiaria platyphylla), common groundsel (Senecio vulgaris), common chickweed (Stellaria media), Virginia dayflower (Commelina virginica), annual bluegrass (Poa annua), naked crabgrass (Digitaria nuda), […] cochinchinensis), quackgrass (Elytrigia repens), Canada horseweed (Conyza canadensis), field bindweed (Convolvulus arvensis), […] (Bidens bipinnata), common mallow (Malva sylvestris), Russian thistle (Salsola kali), and sugarcane (Saccharum officinarum) were planted and treated preemergence with test chemicals formulated in a non-phytotoxic solvent mixture which included a surfactant. At a different time, sugarcane was treated with postemergence applications of some of the test chemicals formulated in the same manner. Plants were approximately 3- to 4-leaf stage for the postemergence treatments. Treated plants and controls were maintained in a greenhouse for 14 to 21 days, after which time all species were compared to controls and visually evaluated. […] A dash (-) response means no test result.

[1] = Preemergence, 62 g ai/ha, scale 0 to 100
[2] = Preemergence, 125 g ai/ha, scale 0 to 100
[3] = Preemergence, 31 g ai/ha, scale 0 to 100
[4] = preemergence, 250 g ai/ha, scale 0 (no effect) to 100 (complete control)
[5] = 31 g ai/ha, scale 0 to 100 (0 no effect, 100 complete control)
[6] = 62 g ai/ha, scale 0 to 100, 0 no effect, 100 complete control, 13 to 15 days
[7] = 125 g ai/ha, scale 0 to 100, 0 no effect, 100 complete control, 13 to 15 days
[8] = 250 g ai/ha, scale 0 to 100 (0 no effect, 100 complete control)

Compound | Plant response rating, Foxtail, Millet (millet foxtail; 31 g ai/ha) | Plant response rating, Foxtail, Millet (millet foxtail; 62 g ai/ha) | Plant response rating, Foxtail, Millet (millet foxtail; 125 g ai/ha) | Plant response rating, Foxtail, Millet (millet foxtail; 250 g ai/ha) | Plant response rating, Foxtail, Giant (giant foxtail; 31 g ai/ha) | Plant response rating, Foxtail, Giant (giant foxtail; 62 g ai/ha) | Plant response rating, Foxtail, Giant (giant foxtail; 125 g ai/ha) | Plant response rating, Foxtail, Giant (giant foxtail; 250 g ai/ha) | Plant response rating, Barnyardgrass (barnyardgrass; 31 g ai/ha) | Plant response rating, Barnyardgrass (barnyardgrass; 62 g ai/ha) | Plant response rating, Barnyardgrass (barnyardgrass; 125 g ai/ha) | Plant response rating, Barnyardgrass (barnyardgrass; 250 g ai/ha) | Plant response rating, Windgrass (windgrass; 31 g ai/ha) | Plant response rating, Windgrass (windgrass; 62 g ai/ha) | Plant response rating, Windgrass (windgrass; 125 g ai/ha) | Plant response rating, Windgrass (windgrass; 250 g ai/ha) | Plant response rating, Barley (winter barley; [1]) | Plant response rating, Barley (winter barley; [2]) | Plant response rating, Barley (winter barley; [3]) | Plant response rating, Barley (winter barley; [4]) | other results
Cc1cc[n+]([O-])c(S(=O)(=O)C(C)c2c(C(F)(F)F)nn(C)c2Cl)c1 (racemic) [Compound 14] | 0 | 20 | 70 | 100 | 0 | 20 | 100 | 100 | 0 | 45 | 70 | 100 | 0 | 75 | 100 | 100 | 0 | 0 | 0 | 15 | Plant response rating, Fall Panicum (fall panicum; 31 g ai/ha): 15; Plant response rating, Fall Panicum (fall panicum; 62 g ai/ha): 50; Plant response rating, Fall Panicum (fall panicum; 125 g ai/ha): 70; Plant response rating, Fall Panicum (fall panicum; 250 g ai/ha): 100
Cc1cc[n+]([O-])c([S+]([O-])Cc2c(C(F)(F)F)nn(C)c2OC(F)F)c1 (centres unmarked) [Compound 1] | 0 | 100 | 100 | 100 | 20 | 95 | 100 | 100 | 20 | 65 | 100 | 100 | 10 | 70 | 100 | 100 | 0 | 40 | 0 | 50 | Plant response rating, Ricefield Bulrush (Ricefield Bulrush; [5]): 75; Plant response rating, Ricefield Bulrush (Ricefield Bulrush; [6]): 75; Plant response rating, Ricefield Bulrush (Ricefield Bulrush; [7]): 75; Plant response rating, Ricefield Bulrush (Ricefield Bulrush; [8]): 85; Plant response rating, Redstem (Redstem; [5]): 40; Plant response rating, Redstem (Redstem; [6]): 60; Plant response rating, Redstem (Redstem; [7]): 80; Plant response rating, Redstem (Redstem; [8]): 85; Plant response rating, Fall Panicum (fall panicum; 31 g ai/ha): 0; Plant response rating, Fall Panicum (fall panicum; 62 g ai/ha): 10; Plant response rating, Fall Panicum (fall panicum; 125 g ai/ha): 30; Plant response rating, Fall Panicum (fall panicum; 250 g ai/ha): 100
Cc1cc[n+]([O-])c([S+]([O-])Cc2c(C(F)(F)F)nn(C)c2OCC(F)(F)F)c1 (racemic) [Compound 30] |  |  |  |  |  |  |  |  |  |  |  |  |  |  |  |  |  |  |  |  | Sugarcane plant response rating (sugarcane; 250 g ai/ha, postemergence, scale 0 to 100 (0 no effect, 100 complete control)): 33; Plant response rating, Sugarcane (sugarcane; 250 g ai/ha): 12
Cc1cc[n+]([O-])c(S(=O)(=O)C(Cl)c2c(C(F)(F)F)nn(C)c2Cl)c1 (racemic) [Compound 22] | 95 | 95 | 95 | 95 | 65 | 70 | 75 | 75 | 0 | 95 | 100 | 100 | 100 | 100 | 100 | 100 | 0 | 0 | 0 | 0 | Plant response rating, Fall Panicum (fall panicum; 31 g ai/ha): 85; Plant response rating, Fall Panicum (fall panicum; 62 g ai/ha): 85; Plant response rating, Fall Panicum (fall panicum; 125 g ai/ha): 90; Plant response rating, Fall Panicum (fall panicum; 250 g ai/ha): 100
Cn1nc(C(F)(F)F)c(CS(=O)(=O)c2cccc[n+]2[O-])c1OC(F)F [Compound 4] | 30 | 40 | 70 | 100 | 40 | 50 | 90 | 100 | 70 | 100 | 100 | 100 | 90 | 100 | 100 | 100 | 30 | 30 | 30 | 35 | Plant response rating, Ricefield Bulrush (Ricefield Bulrush; [5]): 0; Plant response rating, Ricefield Bulrush (Ricefield Bulrush; [6]): 0; Plant response rating, Ricefield Bulrush (Ricefield Bulrush; [7]): 60; Plant response rating, Ricefield Bulrush (Ricefield Bulrush; [8]): 80; Plant response rating, Redstem (Redstem; [5]): 40; Plant response rating, Redstem (Redstem; [6]): 55; Plant response rating, Redstem (Redstem; [7]): 85; Plant response rating, Redstem (Redstem; [8]): 80; Plant response rating, Fall Panicum (fall panicum; 31 g ai/ha): 20; Plant response rating, Fall Panicum (fall panicum; 62 g ai/ha): 20; Plant response rating, Fall Panicum (fall panicum; 125 g ai/ha): 60; Plant response rating, Fall Panicum (fall panicum; 250 g ai/ha): 100
Cn1nc(C(F)(F)F)c(C(Cl)S(=O)(=O)c2cccc[n+]2[O-])c1Cl (centres unmarked) [Compound 12] | 45 | 75 | 100 | 100 | 45 | 75 | 100 | 100 | 65 | 95 | 100 | 100 | 100 | 100 | 100 | 100 | 0 | 0 | 0 | 0 | Plant response rating, Fall Panicum (fall panicum; 31 g ai/ha): 90; Plant response rating, Fall Panicum (fall panicum; 62 g ai/ha): 100; Plant response rating, Fall Panicum (fall panicum; 125 g ai/ha): 100; Plant response rating, Fall Panicum (fall panicum; 250 g ai/ha): 100
Cn1nc(C(F)(F)F)c(C[S+]([O-])c2cccc[n+]2[O-])c1OCC(F)(F)F (racemic) [Compound 28] |  |  |  |  |  |  |  |  |  |  |  |  |  |  |  |  |  |  |  |  | Plant response rating, Sugarcane (sugarcane; 125 g ai/ha): 17; Plant response rating, Sugarcane (sugarcane; 500 g ai/ha): 68
Cn1nc(C(F)(F)F)c(CS(=O)(=O)c2ccc(Cl)c[n+]2[O-])c1OC(F)F [Compound 7] | 0 | 0 | 55 | 55 | 0 | 20 | 25 | 55 | 0 | 15 | 60 | 100 | 65 | 100 | 100 | 100 | 0 | 0 | 0 | 0 | Plant response rating, Fall Panicum (fall panicum; 31 g ai/ha): 0; Plant response rating, Fall Panicum (fall panicum; 62 g ai/ha): 80; Plant response rating, Fall Panicum (fall panicum; 125 g ai/ha): 90; Plant response rating, Fall Panicum (fall panicum; 250 g ai/ha): 100
